In patent EP0103381B1, “Substituted anthra(1,9-cd)pyrazol-6(2H)-ones” (WARNER-LAMBERT COMPANY, priority 1982, dated 1984):

Tests used:
L1210 Leukemia = experiment: L1210 leukemia in vitro; format: cell-based; conditions: Mus musculus, procedure of Europ. J. Cancer 17, 671 (1981), read-out: L1210 Leukemia In Vitro ID50 Molar
Penicillium avellaneum = experiment: agar plate paper-disc inhibition zone screening; format: cell-based; conditions: Hamigera avellanea; Dose 3.0 mg/ml; read-out: Inhibition Zone Diameter mm (Dose mg/ml) P. Avellaneum
Method in brief: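 Mycelia and spores from a six-day 28°C agar culture, suspended in saline with 0.05% Tween 80 at 20% transmittancy, were seeded into molten agar trays. Compounds at 3,000, 1,000, 500, 100 and 10 mcg/ml (solvent <10%) were applied on 12.7 mm paper discs. After at least 20-24 h incubation, inhibition zone diameter was measured in mm.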

[1] = test system: lymphocytic leukemia P388; experiment: in vivo lymphocytic leukemia P388 test; set-up: species or system mice; conditions: Mus musculus, P388, ip, 720 h, P388, Dose 100 mg/kg intraperitoneally, two single doses four days apart; read-out: T/C × 100 (Percent)
Method in brief: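 CD2F mice (6–7 per group) were inoculated intraperitoneally with P388 leukemia ascitic cells. Compounds were then given i.p. as two doses four days apart at various levels. Survival over 30 days was expressed as treated/control time ratio, efficacy criterion T/C×100 >125%.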

Bacillus subtilis = experiment: agar plate paper-disc inhibition zone screening; format: cell-based; conditions: Dose 0.1 mg/ml, read-out: Inhibition Zone Diameter mm (Dose mg/ml) B. Subtilis
Method in brief: (§1)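 Overnight bacterial cultures were suspended in 0.85% saline to 20-35% light transmittancy and mixed into molten assay agar poured in trays. Compounds at 3,000, 1,000, 500, 100 and 10 mcg/ml (solvent <10%) were applied to 12.7 mm paper discs; after 18-20 h at 37°C, inhibition zone diameters were measured in mm.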

Streptococcus faecalis = experiment: agar plate paper-disc inhibition zone screening; format: cell-based; conditions: Enterococcus faecalis; Dose 3.0 mg/ml; read-out: Inhibition Zone Diameter mm (Dose mg/ml) S. Faecalis
Method in brief: as §1

Aerobacter aerogenes = experiment: agar plate paper-disc inhibition zone screening; format: cell-based; conditions: Klebsiella aerogenes; Dose 0.5 mg/ml; read-out: Inhibition Zone Diameter mm (Dose mg/ml) A. Aerogenes
Method in brief: as §1

Escherichia coli = experiment: agar plate paper-disc inhibition zone screening; format: cell-based; conditions: Dose 0.1 mg/ml, read-out: Inhibition Zone Diameter mm (Dose mg/ml) E. Coli
Method in brief: as §1

Work on `O=C1c2ccccc2-c2nn(CCNCCO)c3ccc(Cl)c1c23` [H; Cl*; (CH2)2NH(CH2)2OH, 5-chloro-2-[2-[(2-hydroxyethyl)amino]ethyl]anthra[1,9-cd]pyrazol-6(2H)-one] yielded an IC50 (L1210 Leukemia) of 0.39 µM, a zone of inhibition at 3000 µg/mL (Penicillium avellaneum) of 0 mm and a response vs control in vivo at 100 mg/kg [1] of 124%. It also gave a zone of inhibition at 100 µg/mL (Bacillus subtilis) of 16 mm, a zone of inhibition at 3000 µg/mL (Streptococcus faecalis) of 15 mm and a zone of inhibition at 500 µg/mL (Aerobacter aerogenes) of 18 mm. For the same molecule, the zone of inhibition at 100 µg/mL (Escherichia coli) was 16 mm.
